Measured values taken from PMC8307506, “Identification of Dihydromyricetin and Metabolites in Serum and Brain Associated with Acute Anti-Ethanol Intoxicating Effects in Mice” (International Journal of Molecular Sciences, 2021).
Where two headings read alike, the source gives them in different places.

How the values were obtained:
[1] = design: method as in PMID 28534405; conditions: Sprague Dawley rats, 100 mg/kg PO; cited from earlier work
[2] = Serum pharmacokinetics of DHM after PO and IP administration; format: in vivo, mice; conditions: for Tmax / half-life / Cmax / AUC(0-t): C57BL/6J, mouse, serum; for half-life: read-out: Serum T1/2 (converted); for IP AUC0→24 relative to PO AUC0→24: DHM 50 mg/kg; for Cmax / AUC(0-t): 50 mg/kg; for AUC(0-t): read-out: Serum AUC0→24
Protocol: Eight-week-old male and female C57BL/6J mice (Jackson’s Laboratories, Bar Harbor, ME, USA) were housed 4 mice to a cage (separated by sex) and maintained on 12-h light, 12-h dark cycles (lights on at 0700 h) in the animal facility at the Department of Animal Sciences, Rutgers University. Following 1-week acclimation, animals were given ad libitum access to water and a polyphenol-free diet (PFD; 3.82 kcal/g, 10% fat, 20% protein, 70% carbohydrate; D12450H; Research Diets, Inc., New Brunswick, NJ, USA) for at least 10 days. For PK studies, after an overnight fast, mice were administered 50 mg/kg DHM (dissolved in 0.9% saline with 10% DMSO) by either IP injection or oral gavage. Oral gavage was performed using single-use, sterile plastic feeding tubes for mice (20 ga × 30 mm; cat# FTP-20-30, Instech Laboratories, (Plymouth Meeting, PA, USA). Mice were deeply anesthetized with 5% isoflurane mixed with oxygen, and blood was collected by cardiac puncture. Following cardiac puncture, animals were exsanguinated and transcardial perfusion with 0.9% saline was performed to ensure blood removal from the brain tissue. Blood and brain samples were collected from a total of 85 mice at 0.25, 0.75, 1.5, 3, 6, 12, 24 h (3–4 mice for each sex and timepoint). Tissues were immediately homogenized with 0.2% formic acid at 1:2 (w/v), and frozen at −80 °C until analysis. Blood was centrifuged at 3000× g for 10 min at 4 °C to isolate serum. For efficacy studies, mice (n = 8/sex) were fasted at 5 h prior to Ethanol gavage 5 g/kg (37% Ethanol in water). DHM 50 mg/kg IP (dissolved in 0.9% saline with 10% DMSO) was administered at 0, 15, 45, 90 and 180 min prior to Ethanol oral gavage. Each mouse was tested at each time point 7 days apart over 6-week period. At the time of Ethanol gavage, mice were placed in oversized conical holders (L: 152 mm X W: 37 mm) and observed for ability to return upright upon being placed in a supine position. Duration of LORR was determined by ability to return upright 3 times within 30 s. To determine whether ethanol-induced tolerance developed, one week (Week 1; Baseline) prior to the 6-week repeated DHM dosing study all mice were oral dose with ethanol (5 g/kg) without any IP injection and LORR was measured. Mice were then re-tested in a similar fashion with oral ethanol 1 week after the DHM 6-week period (Week 8; Post). […] All animal studies were approved by the Institutional Animal Care and Use Committee of Rutgers University (Bello; PROTO999900014, OLAW #A3262-01, 15 March 2017) and complied with NIH Guide for the Care and Use of Laboratory Animals.
All serum samples were stored at −80 °C and conditioned to room temperature prior to analysis. An aliquot of 100 µL of serum, 20 µL 4M HCl, and 50 µL of internal standard (IS) solution (417 ng/mL isoquercetin in EtOAc) were combined in an Eppendorf tube. An aliquot of 500 µL of EtOAc was added and samples were vortexed for 30 s. Samples were then centrifuged at 3000× g for 2 min and the supernatant transferred to a glass vial. Samples were extracted 2 more times with EtOAc and the supernatant added to the corresponding vial containing 10 µL of 2% ascorbic acid in methanol (MeOH). Samples were then dried under vacuum, reconstituted with 100 µL of 45% MeOH in water with 0.1% formic acid (FA), centrifuged at 16,000× g for 10 min and transferred to an HPLC vial for analysis.
An Agilent 1290 Infinity II UPLC system interfaced with an Agilent 6470 Triple Quadrupole Mass Spectrometer with an electrospray ionization source (Agilent Technology, Palo Alto, CA, USA) was used for sample analysis. An Waters Acquity UPLC BEH C8 column (2.1 × 150 mm, 1.7 μm) (Milford, MA, USA) column with a VanGuard Acquity C8 guard column (2.1 × 5 mm, 1.7 μm) (Milford, MA, USA) was used for chromatographic separation. The binary mobile phases consisted of water with 0.1% FA (phase A) and acetonitrile (ACN) with 0.1% formic acid (phase B). The flow rate was set at 0.450 mL/min. […]

[3] = system: C57BL/6J mice; test: Ethanol-induced loss of righting reflex (LORR); format: in vivo
Protocol: Eight-week-old male and female C57BL/6J mice (Jackson’s Laboratories, Bar Harbor, ME, USA) were housed 4 mice to a cage (separated by sex) and maintained on 12-h light, 12-h dark cycles (lights on at 0700 h) in the animal facility at the Department of Animal Sciences, Rutgers University. Following 1-week acclimation, animals were given ad libitum access to water and a polyphenol-free diet (PFD; 3.82 kcal/g, 10% fat, 20% protein, 70% carbohydrate; D12450H; Research Diets, Inc., New Brunswick, NJ, USA) for at least 10 days. For PK studies, after an overnight fast, mice were administered 50 mg/kg DHM (dissolved in 0.9% saline with 10% DMSO) by either IP injection or oral gavage. […] Duration of LORR was determined by ability to return upright 3 times within 30 s. To determine whether ethanol-induced tolerance developed, one week (Week 1; Baseline) prior to the 6-week repeated DHM dosing study all mice were oral dose with ethanol (5 g/kg) without any IP injection and LORR was measured. […]
Pharmacokinetic parameters were calculated using noncompartmental analysis. Elimination half-life (T1/2) was calculated with R software from the linear regression of the terminal phase of the log serum concentration-time curve. The AUC0→24 was calculated with OriginLab software by trapezoidal analysis of the serum concentration-time plot. Cmax and Tmax were determined directly from observed data. Data are expressed as mean ± SEM. Statistical significance between AUC0→24 among test groups was calculated with an independent t-test (GraphPad software, San Diego, CA, USA). Time to LORR was analyzed by repeated measured ANOVA. Tolerance was determined by mean split in LORR response and confirmed with paired t-test (Week 1 vs. Week 8). Statistical significance of serum concentrations for individual time points was calculated using a two-way analysis of variance (ANOVA) analysis. […] Statistical significance of electrophysiology results compound GABAergic modulation was determined using a paired t-test (Vehicle control vs. Compound, GraphPad software, San Diego CA, USA). p < 0.05 was considered significant.

[4] = design: method as in PMID 28114854; conditions: cited from earlier work
[5] = female, ip, female mice, DHM 50 mg/kg IP
[6] = female, ip, female mice, DHM 50 mg/kg IP, mean ± SEM
[7] = female, po, female mice, DHM 50 mg/kg PO
[8] = female, po, female mice, DHM 50 mg/kg PO, mean ± SEM
[9] = male, ip, male mice, DHM 50 mg/kg IP
[10] = male, ip, male mice, DHM 50 mg/kg IP, mean ± SEM
[11] = male, po, male mice, DHM 50 mg/kg PO
[12] = male, po, male mice, DHM 50 mg/kg PO, mean ± SEM

## O=C1c2c(O)cc(O)cc2O[C@H](c2cc(O)c(O)c(O)c2)[C@H]1O [DHM, Dihydromyricetin]
[1]
  time DHM detected in brain tissue post administration: up to 12 h
[2]; female mice, DHM 50 mg/kg IP
  Tmax: 15 min
  half-life: 45.6 min
[2]; female mice, DHM 50 mg/kg PO
  Tmax: 15 min
  half-life: 110 min
  Serum AUC0→24: 0.7 µM·h
[2]; male mice, DHM 50 mg/kg IP
  Tmax: 15 min
  half-life: 95.4 min
[2]; male mice, DHM 50 mg/kg PO
  Tmax: 15 min
  half-life: 115 min
  Serum AUC0→24: 2.5 µM·h
[2]; DHM 50 mg/kg PO
  PO exposure levels in male mice relative to female mice: 3.5 times
[2]; female mice
  IP AUC0→24 relative to PO AUC0→24: 23.8 fold
[2]; female mice, listed as dihydromyricetin
  IP AUC0→24 relative to PO AUC0→24: 7.2 fold
[2]; [5]
  Cmax: 23.8 µM
  AUC(0-t): 17.3 µM·h
[2]; [6]
  Cmax: 23.8 µM
  AUC(0-t): 17.4 µM·h
[2]; [7]
  Cmax: 0.62 µM
  AUC(0-t): 0.728 µM·h
[2]; [8]
  Cmax: 0.623 ± 0.159 µM
  AUC(0-t): 0.728 ± 0.461 µM·h
[2]; male mice
  IP AUC0→24 relative to PO AUC0→24: 7.2 fold
[2]; male mice, listed as dihydromyricetin
  IP AUC0→24 relative to PO AUC0→24: 23.8 fold
[2]; [9]
  Cmax: 38.3 µM
  AUC(0-t): 18.1 µM·h
[2]; [10]
  Cmax: 38.3 µM
  AUC(0-t): 18.1 µM·h
[2]; [11]
  Cmax: 1.9 µM
  AUC(0-t): 2.51 µM·h
[2]; [12]
  Cmax: 1.89 ± 0.59 µM
  AUC(0-t): 2.51 ± 0.988 µM·h
[3]; C57BL/6J mice, DHM 50 mg/kg IP 0 or 15 min prior to ethanol PO 5 g/kg
  ethanol-induced loss of righting reflex: significantly reduced
[3]; female mice, DHM 50 mg/kg IP at time 0 and 45 min before oral ethanol 5 g/kg, p < 0.05
  LORR compared with vehicle treated mice: reducing LORR
[3]; responsive mice (5 males/3 females), DHM 50 mg/kg IP at time 0 and 15 min prior to ethanol PO, p < 0.05
  LORR: demonstrated a reduction in LORR
[4]; acidic environments, similar to upper GI tract
  stability in acidic environments: stable
[4]; pH > 6
  stability in solutions with pH > 6: unstable
